The IC50 is the point on the concentration scale where inhibition reaches its midpoint.

This note sets out measurements from patent publication US20050215548A1 (Cyclacel Limited, priority 2002, published 2005).

Structures are written as SMILES. Read-outs that look alike come from different tables or passages of the source. Marks after values point to notes of the source that are not given here. Non-standard residues stand in square brackets, D forms with d. Residues, ends and D or L forms follow the SMILES beside them. Trp(6-Cl) = N[C@@H](Cc1c[nH]c2cc(Cl)ccc12)C(=O)O; Pmp = N[C@@H](Cc1ccc(CP(=O)(O)O)cc1)C(=O)O; Ac3c = NC1(C(=O)O)CC1; Aib = CC(C)(N)C(=O)O

The target in one data set is T1, HDM2 (Homo sapiens, UniProt Q00987).
T1 construct: Recombinant HDM2 (1.5 μg per well) in TBS-BSA buffer
T1 sequence (Q00987 whole entry): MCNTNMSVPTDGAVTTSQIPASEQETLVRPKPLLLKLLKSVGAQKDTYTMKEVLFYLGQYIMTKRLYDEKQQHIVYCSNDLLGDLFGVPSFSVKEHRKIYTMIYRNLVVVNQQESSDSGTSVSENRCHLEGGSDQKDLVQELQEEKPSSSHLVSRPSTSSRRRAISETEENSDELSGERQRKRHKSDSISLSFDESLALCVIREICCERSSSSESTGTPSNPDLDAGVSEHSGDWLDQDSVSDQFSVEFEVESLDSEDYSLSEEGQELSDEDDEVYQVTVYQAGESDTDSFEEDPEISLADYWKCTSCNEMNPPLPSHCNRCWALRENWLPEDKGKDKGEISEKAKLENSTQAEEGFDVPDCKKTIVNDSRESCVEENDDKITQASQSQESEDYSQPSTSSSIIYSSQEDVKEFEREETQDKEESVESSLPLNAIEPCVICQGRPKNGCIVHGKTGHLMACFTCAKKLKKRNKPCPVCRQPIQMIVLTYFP
Description: Fluorescence polarisation competitive HDM2 binding assay. The protocol:
This was carried out using a 96-well microtiter plate (Costar) format. Recombinant HDM2 (1.5 μg per well) in TBS-BSA buffer (50 mM Tris pH 7.4, 150 mM NaCl, and 0.1% BSA) was incubated for 5 min at room temperature in the presence of serially diluted test compound (in TBS-BSA buffer with a final concentration of 5% DMSO). Fluorescently labelled p53-derived peptide (fluorescein-[…]NH2, 0.2 μM) was added to each well and the plate was incubated at room temperature for 45 min. The fluorescence polarisation (excitation 485 nm, emission 520 nm) of the peptide was measured. IC50 values were calculated from dose-response curves.
(§1) The fluorescence polarisation competitive HDM2 binding assay described in Example 3 was used. Furthermore, the anti-proliferative potency of the compounds against three human tumour cell lines with different genetic make-up was also determined. […] The cell lines used were as follows: AGS, gastric adenocarcinoma, wild-type p53; H1299, large cell lung carcinoma, p53 null, low HDM2; SJSA-1, primitive multipotential bone sarcoma, wild-type p53, overexpressed HDM2.
For orientation: In fluorescence polarisation assays a small probe gives low polarisation when free and higher when bound to something large.

A further data set deals with p53. The data set is described as follows: p53 reporter gene assay (U2OS-derived luciferase reporter cell line). To be noted: for Fold induction of luciferase activity: compared to basal luciferase activity, 16-h time point, at concentration of maximal induction; for Concentration (test compound concentration at which the p53 induction was maximal): p53 reporter, U2OS-derived cell line. Background: A reporter such as luciferase makes a cellular process visible.

A further data set has as its system AGS. Description: 72-h MTT cytotoxicity assay, AGS. To be noted: Homo sapiens, 72-h MTT, Table 1, read-out: IC50 Anti-proliferative effect on cell line AGS. The class given is cell-based. The protocol:
as §1
(§2) Representative bisarylsulfonamide compounds were tested on a panel of transformed and non-transformed human cell lines, using a standard 72-h MTT cytotoxicity assay [Haselsberger K et al, ibid].
Background: Tetrazolium dyes change colour on reduction, which living cells bring about.

In another data set the test system is H1299. The data set is described as follows: 72-h MTT cytotoxicity assay, H1299. It is filed as cell-based. To be noted: Homo sapiens, NCI-H1299; 72-h MTT; Table 1; read-out: IC50 Anti-proliferative effect on cell line H 1299. The protocol: as §1, §2
A further data set concerns SJSA-1. Description: 72-h MTT cytotoxicity assay, SJSA-1. The class given is cell-based. As to conditions: Homo sapiens, SJSA-1; 72-h MTT; Table 1; read-out: IC50 Anti-proliferative effect on cell line SJSA-1. The protocol: as §1, §2
Where [1] appears, read: fluorescence polarisation assay, Table 3, read-out: In vitro competitive HDM2 binding assay IC50.
Setting [2] is: fluorescence polarisation format, Table 1, read-out: IC50 In vitro competitive HDM2 binding assay.

Description for p53: A dual assay assessing both cell viability and p53 response was employed. A U2OS-derived cell line stably transfected with a p53 response element and a luciferase reporter gene was created. […] After seeding of cells into 96-well tissue culture plates, treatment with test compounds, and incubation for the desired duration, the cell proliferation reagent WST-1 (Roche Molecular Biochemicals) was used to determine cell viability. The Bright-Glo™ Luciferase Assay System (Promega) was used to measure luciferase activity. The data from the cell viability assay was used to normalise data from the luciferase assay.

Regarding `O=S(=O)(Nc1ccc(F)cc1)c1cc(Br)c(Cl)s1` [Compound 4, 4-Bromo-5-chlorothiophene-2-sulfonic acid (4-fluorophenyl)amide], the IC50 at HDM2 (setting [1]) and on HDM2 (setting [2]) was 378 µM each time. Besides, in the data set on p53, the “Fold induction of luciferase activity” value is listed as <2 fold. Moreover, in the data set with p53, the “Concentration (test compound concentration at which the p53 induction was maximal)” value (shortened to “Concentration”) is 100^e μM.

`O=S(=O)(Nc1ccc(C(F)(F)F)cc1)c1cc(S(=O)(=O)Nc2ccc(C(F)(F)F)cc2)c(Cl)s1` [Compound 33, 5-Chlorothiophene-2,4-disulfonic acid bis-[(4-trifluoro-methyl-phenyl)-amide]]: the IC50 at HDM2 (setting [2]) was 65 ± 5 µM; in the data set on AGS it was 68 ± 1 µM; with H1299 it was 69 ± 1 µM; with SJSA-1, > 100 µM.

`O=[N+]([O-])c1cc(S(=O)(=O)Nc2ccc(C(F)(F)F)cc2)ccc1Cl` [Compound 35, 4-Chloro-3-nitro-N-(4-trifluoromethylphenyl)benzenesulfonamide]: the IC50 at HDM2 (setting [2]) came to 192 ± 8 µM; in the data set with AGS, 13 ± 3.3 µM; in the data set with H1299 it was 9.3 ± 1.7 µM; with SJSA-1 it was 26.5 ± 1.6 µM.

For the molecule `O=S(=O)(Nc1cc(C(F)(F)F)cc(C(F)(F)F)c1)c1cnc(Cl)c(Br)c1` [Compound 42, 5-Bromo-6-chloropyridine-3-sulfonic acid (3,5-bis-trifluoromethylphenyl)amide], the IC50 turned out to be 278 ± 50 µM at HDM2 (setting [2]), 30 ± 7 µM with AGS, 32 ± 7 µM with H1299 and 65 ± 18 µM in the data set with SJSA-1.

Consider `Cn1ncc(-c2ccc(S(=O)(=O)Nc3cc(C(F)(F)F)cc(C(F)(F)F)c3)s2)c1C(F)(F)F` [Compound 43, 5-(1-Methyl-5-trifluoromethyl-1H-pyrazol-4-yl)-thiophene-2-sulfonic acid (3,5-bis-trifluoromethylphenyl)amide], for which the IC50 at HDM2 (setting [2]) amounted to 133 ± 11 µM; in the data set on AGS it was 20.9 ± 1 µM; in the data set on H1299 it was 18 ± 0.8 µM; in the data set with SJSA-1, 33.7 ± 0.3 µM.

Regarding `O=[N+]([O-])c1cc(S(=O)(=O)Nc2cc(C(F)(F)F)cc(C(F)(F)F)c2)sc1Cl` [Compound 44, 5-Chloro-4-nitrothiophene-2-sulfonic acid (3,5-bis-trifluoromethyl-phenyl)-amide], the IC50 on HDM2 (setting [2]) was 25.4 ± 0.2 µM; with AGS it was 10 µM; in the data set on H1299 it was 14 ± 2 µM; in the data set on SJSA-1 it was 19 ± 3 µM.

In the case of `O=[N+]([O-])c1cc(S(=O)(=O)Nc2cc(Cl)cc(Cl)c2)ccc1Cl` [Compound 47, 4-Chloro-N-(3,5-dichlorophenyl)-3-nitro-benzenesulfonamide], the concentration for half-maximal inhibition (IC50) at HDM2 (setting [2]) was 234 ± 37 µM; with AGS it was 23 ± 2 µM; with H1299 it was 18 ± 8 µM; with SJSA-1, 37 ± 6 µM.

Take `CN(c1ccc(Cl)cc1)S(=O)(=O)c1cc([N+](=O)[O-])c(Cl)s1` [Compound 51, 5-Chloro-4-nitrothiophene-2-sulfonic acid (4-chloro-phenyl)-methylamide]: the IC50 at HDM2 (setting [2]) was 5.9 ± 0.7 µM; in the data set on AGS, 11.3 ± 1 µM; with H1299, 17.4 ± 3.8 µM; with SJSA-1, 15.6 µM.

With `CN(Cc1ccc(C(F)(F)F)cc1)S(=O)(=O)c1cc([N+](=O)[O-])c(Cl)s1` [Compound 52, 5-Chloro-4-nitrothiophene-2-sulfonic acid methyl-(4-trifluoromethylbenzyl)amide], the IC50 on HDM2 (setting [2]) is 10.7 ± 0.2 µM; in the data set on AGS it was 23.3 ± 1.4 µM; with H1299, 28.5 ± 1.9 µM; in the data set with SJSA-1 it was 27.5 ± 1.3 µM.

Regarding `O=[N+]([O-])c1cc(S(=O)(=O)NCc2ccc(Cl)cc2)sc1Cl` [Compound 56, 5-Chloro-4-nitro-thiophene-2-sulfonic acid 4-chloro-benzylamide], the half-maximal inhibitory concentration (IC50) was found to be 24.8 ± 5.4 µM at HDM2 (setting [2]), 4.3 ± 0.6 µM in the data set on AGS, 6.3 ± 1.9 µM in the data set with H1299 and 9.3 ± 2.7 µM in the data set with SJSA-1.

With `O=[N+]([O-])c1cc(S(=O)(=O)N(Cc2cccc(C(F)(F)F)c2)c2ccc(Cl)cc2)sc1Cl` [Compound 67, 5-Chloro-4-nitro-thiophene-2-sulfonic acid (4-chloro-phenyl)-(3-trifluoromethyl-benzyl)-amide], the half-maximal inhibitory concentration (IC50) on HDM2 (setting [2]) came to 8.5 ± 3.2 µM; in the data set on AGS it was 6.7 ± 0.9 µM; in the data set on H1299, 12 ± 1 µM; in the data set on SJSA-1, 11.8 ± 1.6 µM.

With `CC(=O)Sc1sc(S(=O)(=O)Nc2ccc(Cl)cc2)cc1[N+](=O)[O-]` [Compound 72, Thioacetic acid S-[5-(4-chloro-phenylsulfamoyl)-3-nitro-thiophen-2-yl] ester], the half-inhibitory concentration (IC50) on HDM2 (setting [2]) was 16.2 µM; in the data set with AGS it was 61 µM.

Regarding `Cc1sc(S(=O)(=O)Nc2ccc(Cl)cc2)cc1[N+](=O)[O-]` [Compound 73, 5-Methyl-4-nitro-thiophene-2-sulfonic acid (4-chloro-phenyl)-amide], the results for the IC50 on HDM2 (setting [2]), in the data set with AGS and in the data set with H1299 were > 167 µM, 53 µM and 66 µM, respectively.

On to `O=[N+]([O-])c1cc(S(=O)(=O)N(Cc2ccc(C(F)(F)F)cc2)Cc2cccc(C(F)(F)F)c2)sc1Cl` [Compound 75, 5-Chloro-4-nitro-thiophene-2-sulfonic acid (3-trifluoro-methyl-benzyl)-(4-trifluoromethyl-benzyl)-amide], for which the IC50 at HDM2 (setting [2]) is 3.5 ± 10 µM; with AGS it was 9 µM; in the data set with H1299 it was 16 µM; with SJSA-1, 18 µM.

In the case of `O=[N+]([O-])c1cc(S(=O)(=O)NCCc2c[nH]c3ccc(Cl)cc23)ccc1Cl` [Compound 81, 4-Chloro-N-[2-(5-chloro-1H-indol-3-yl)-ethyl]-3-nitro-benzenesulfonamide], the 50% inhibitory concentration (IC50) at HDM2 (setting [2]) is 311 ± 21 µM; in the data set on AGS, 29 ± 2 µM; in the data set on H1299, 39 ± 6 µM; with SJSA-1 it was 51 ± 1 µM.

Consider `COc1ccc(S(=O)(=O)Nc2cc(C(F)(F)F)cc(C(F)(F)F)c2)cc1Cl` [Compound 104, N-(3,5-Bis-trifluoromethyl-phenyl)-3-chloro-4-methoxy-benzene-sulfonamide], for which the concentration for half-maximal inhibition (IC50) at HDM2 (setting [2]) amounted to 151 ± 26 µM; in the data set on AGS, 25 µM.

As to `O=S(=O)(Nc1ccc(Cl)cc1)c1cc(Br)c(Br)s1` [Compound 125, 4,5-Dibromo-thiophene-2-sulfonic acid (4-chloro-phenyl)-amide], the IC50 on HDM2 (setting [2]) worked out at 198 ± 17 µM.

On to `O=S(=O)(Nc1ccc(C(F)(F)F)cc1)c1cc(Br)c(Br)s1` [Compound 126, 4,5-Dibromo-thiophene-2-sulfonic acid (4-trifluoromethyl-phenyl)-amide], for which, at HDM2 (setting [2]), the IC50 worked out at 163 ± 27 µM.

Regarding `O=S(=O)(NCc1ccc(F)cc1)c1cc(Cl)c(O)c(Cl)c1` [Compound 127, 3,5-Dichloro-N-(4-fluoro-benzyl)-4-hydroxy-benzenesulfonamide], the IC50 on HDM2 (setting [2]) is 325 ± 24 µM.

Consider `O=S(=O)(Nc1cc(C(F)(F)F)cc(C(F)(F)F)c1)c1c(Cl)cccc1Cl` [Compound 128, N-(3,5-Bis-trifluoromethyl-phenyl)-2,6-dichloro-benzenesulfonamide], for which the figures for the 50% inhibitory concentration (IC50) on HDM2 (setting [2]) and in the data set with AGS were 134 ± 28 µM and 53 µM, respectively.

As to `COc1ccc(NS(=O)(=O)c2cc([N+](=O)[O-])c(Cl)s2)c(C)c1` [Compound 129, 5-Chloro-4-nitro-thiophene-2-sulfonic acid (4-methoxy-2-methyl-phenyl)-amide], at HDM2 (setting [1]), the IC50 was found to be 278 ± 19 µM. On HDM2 (setting [2]), the half-maximal inhibitory concentration (IC50) was determined as 278 ± 19 µM. Further, in the data set on p53, the “Fold induction of luciferase activity” value was determined as 5 fold and the “Concentration” value was found to be 100 µM.

Take `O=[N+]([O-])c1cc(S(=O)(=O)Nc2ccc(Cl)cc2)sc1N1CCCC(O)C1` (stereo not shown) [Compound 130, 5-(3-Hydroxy-piperidin-1-yl)-4-nitro-thiophene-2-sulfonic acid (4-chloro-phenyl)-amide]: the IC50 at HDM2 (setting [2]) worked out at 64 ± 1 µM.

`O=[N+]([O-])c1ccc(NS(=O)(=O)c2cc([N+](=O)[O-])c(Cl)s2)cc1` [Compound 131, 5-Chloro-4-nitro-thiophene-2-sulfonic acid (4-nitro-phenyl)-amide]: the 50% inhibitory concentration (IC50) at HDM2 (setting [2]) stood at 41 ± 4 µM.

On to `CSCC[C@H](NC(=O)[C@@H](N)Cc1ccccc1)C(=O)NC(C)(C)C(=O)N[C@@H](Cc1ccc(CP(=O)(O)O)cc1)C(=O)N[C@@H](Cc1c[nH]c2cc(Cl)ccc12)C(=O)N[C@@H](CCC(=O)O)C(=O)NC1(C(=O)N[C@@H](CC(C)C)C(N)=O)CC1` [Control, H-Phe-Met-Aib-Pmp-(6-Cl-Trp)-Glu-Ac3c-Leu-NH2, reference compound] (H-FM[Aib][Pmp][Trp(6-Cl)]E[Ac3c]L-NH2), for which the IC50 at HDM2 (In vitro competitive HDM2 binding assay IC50, fluorescence polarisation assay, Table 3) is 0.19 µM. In the data set on p53, the “Fold induction of luciferase activity” value was 4 fold and the “Concentration” value is 150 to 200 µM.
